Measured values published in patent publication US9707220B2 (The United States of America, as represented by the …, priority 2005, dated 2017).
“And” between values parts separate entries of the source, which are not always exact repeats. Equal entries are not always repeated. Marks after values point to notes of the source that are not given here.

What was measured:
Type in all cases: in vivo, human
[1] = tested on: unmedicated, currently depressed patients meeting criteria for Major Depressive Disorder (MDD) or Bipolar Disorder (BD); assay: Example 1: double-blind randomized dose-finding study, 15-minute intravenous scopolamine infusions, MADRS depression severity in patients; set-up: key to MADRS score, Follow-up / MADRS score, Session 3, Pt. MEAN / MADRS score, Session 4, Pt. MEAN / MADRS score, Follow-up, Pt. MEAN / MADRS score, Post 2 μg/kg / MADRS score, Post 3 μg/kg / MADRS score, Post 4 μg/kg / MADRS score, Post 2 μg/kg, MEAN / MADRS score, Post 3 μg/kg, MEAN: Montgomery & Asberg Depression Rating Scale (MADRS) total score
Description: Prior to each infusion, a psychiatric interview was performed using the Montgomery & Asberg Depression Rating Scale (MADRS) to monitor depression severity across sessions. Participants were monitored continuously for the development of clinically relevant side effects. Sessions were scheduled a minimum of 3 days apart and a maximum of 5 days apart when possible. Follow-up psychiatric interviews were obtained when patients were available.
Comparisons also were made between MADRS scores obtained before and after each specific dose. […] Post evaluations for the last session were provided by the follow-up psychiatric interviews when available.

[2] = tested on: unmedicated, currently depressed patients meeting the DSM-IV criteria for Major Depressive Disorder (MDD) or Bipolar Disorder (BD); assay: Example 2: double-blind, placebo-controlled, randomized cross-over study, MADRS depression severity
From the text: (§1) Session one was designed to be single-blind during which all subjects received a placebo infusion to allow for a baseline evaluation. The next six sessions were separated into two blocks of three sessions each; one block included a series of three placebo infusions (P Block) and the other a series of three scopolamine infusions (S Block). Individuals were randomized into either the P/S (placebo/scopolamine) series or the S/P (scopolamine/placebo) series, using a double-blind design. In total, all subjects received four placebo infusions and three scopolamine infusions. Prior to infusion, unstructured psychiatric interviews were completed using the Montgomery & Asberg Depression Rating Scale (MADRS) and the Hamilton Anxiety Scale to provide evaluations of depression and anxiety severity upon entering the study (i.e., baseline 1); following the first infusion as an assessment of placebo effects (i.e., baseline 2); after all infusions associated with block 1 (i.e., last evaluation block 1); and after all infusions associated with block 2 (i.e., last evaluation block 2) obtained during a follow-up psychiatric interview. Sessions were scheduled a minimum of 3 days apart and a maximum of 5 days apart when possible.
(§2) Patient diagnosis and features that contribute to prognosis, including history of response to conventional treatment, chronicity and comorbid anxiety disorders, are summarized in Table III.
(§3) Session one was designed to be single-blind during which all subjects received a placebo infusion to allow for a baseline evaluation in all subjects. Subsequently, individuals were randomized into either an P/S or S/P double-blind design whereby P is defined as a series of three sessions during which participants received placebo and S is defined as a series of three sessions during which participants received scopolamine. […] Prior to each infusion, unstructured psychiatric interviews were completed using the MADRS and the Hamilton Anxiety Scale. Sessions were scheduled a minimum of 3 days apart and a maximum of 5 days apart when possible. Follow-up psychiatric interviews were obtained to assess the effects of session seven. […] Repeated measures ANOVA was used to evaluate session differences, group differences and session X group effects. In the presence of significant ANOVA results, t-tests were used for within and between group comparisons to identify specific effects.

[3] = tested on: unmedicated, currently depressed patients meeting the DSM-IV criteria for Major Depressive Disorder (MDD) or Bipolar Disorder (BD); assay: Example 2: double-blind, placebo-controlled, randomized cross-over study, Hamilton Anxiety Scale
From the text: as §1, §2, §3

[4] = 4.0 μg/kg iv, three infusions, p<0.005
[5] = both treatment groups, no change following placebo

With `CN1C2C[C@H](OC(=O)C(CO)c3ccccc3)CC1[C@H]1OC21` (stereo partly shown) [scopolamine] the “MADRS score, Follow-up” value ([1]; individual patient, follow-up interview after all four sessions) was 37 and 16 and 2 and 9 and 14, the “MADRS score, Session 2” value ([1]; individual patient, scored before the Session 2 infusion, after the Session 1 dose, iv 2, 3 or 4 μg/kg or placebo in random order, sessions 3-5 days apart) was 36^d and 44^a and 25^a and 32^C and 18^b and 29^C and 15^d and the “MADRS score, Session 3” value ([1]; individual patient, scored before the Session 3 infusion, after two earlier sessions, doses in random order) was 35^b and 34^d and 31^b and 4^C and 25^a and 14^a and 22^d and 7^a. For the same compound, the “MADRS score, Session 4” value ([1]; individual patient, scored before the Session 4 infusion, after three earlier sessions, doses in random order) was 35^a and 22^b and 32^d and 8^d and 28^d and 11^d and 17^a and 7^b, the “MADRS score, Post 2 μg/kg” value ([1]; individual patient, scored in the next session, 3 to 5 days after 2 μg/kg iv) was 37 and 32 (2×) and 4 and 14 and 29 and 35 and the “MADRS score, Post 3 μg/kg” value ([1]; individual patient, scored in the next session, 3 to 5 days after 3 μg/kg iv) was 44 and 25 (2×) and 8 and 18 and 22 and 15 and 36. For the same compound, the “MADRS score, Post 4 μg/kg” value ([1]; individual patient, scored in the next session, 3 to 5 days after 4 μg/kg iv) was 22 and 16 and 2 and 9 and 14 and 17 and 7 and 35, the “MADRS score, Session 3, Pt. MEAN” value ([1]; mean of 8 patients, irrespective of session dose) was 21.5 and the “MADRS score, Session 4, Pt. MEAN” value ([1]; mean of 8 patients, irrespective of session dose, significantly less than baseline, p < 0.05) was 20.0*. For the same compound, the “MADRS score, Follow-up, Pt. MEAN” value ([1]; mean of patients with follow-up, significantly less than baseline, p < 0.05) was 15.6*, the “MADRS scores post 4.0 μg/kg compared to baseline and pre-4.0 μg/kg measures” value ([1]; p=0.0015 vs baseline, p=0.018 vs pre-dose) was “significantly lower” and the “MADRS scores following session four compared to session one baseline” value ([1]; patient group, post-hoc t-test, p=0.01) was “significantly lower”. The “MADRS scores following session three compared to session one baseline” value ([1]; patient group, post-hoc t-test, p=0.03) was “significantly lower”, the “Antidepressant effect, MADRS across sessions (summary)” value ([1]; patient group, effect primarily after the 4.0 μg/kg dose) was “robust and rapid antidepressant effects” and the “MADRS score, Post 2 μg/kg, MEAN” value ([1]; patient mean, baseline mean 29.00, pre-dose mean 22.38) was 26.14. The “MADRS score, Post 4 μg/kg, MEAN” value ([1]; patient mean, baseline mean 29.00, pre-dose mean 23.25, p = 0.0015 vs baseline, p = 0.018 vs pre-session) was 15.25^#*, the “MADRS score, Post 3 μg/kg, MEAN” value ([1]; patient mean, baseline mean 29.00, pre-dose mean 27.63) was 24.13 and the “MADRS scores post 2.0 and 3.0 μg/kg compared to baseline and pre-dose” value ([1]; t-tests, patient group) was “No other differences were significant”. For the same compound, the “MADRS depression severity, P/S group at end of Block 2 (scopolamine) vs baseline measures and end of Block 1” value [2, 4] was “significantly lower”, the “MADRS depression severity, S/P group at end of Block 1 (scopolamine) vs baseline 1 and baseline 2” value [2, 4] was “significantly lower” and the “MADRS depression severity, S/P group vs P/S group at last evaluation of Block 1” value ([2]; 4.0 μg/kg iv, three infusions, t=5.3, p<0.0001) was “significantly lower”. The “Depressive symptoms (mean MADRS scores, FIG. 2) following treatment” value [2, 5] was “significant improvement”, the “MADRS depression severity, S/P group at end of Block 2 (placebo after scopolamine) vs baseline measures” value ([2]; persistence of effect, p<0.005) was “significantly lower” and the “Hamilton Anxiety rating, P/S group at end of Block 2 (scopolamine) vs baseline 1, baseline 2 and end of Block 1” value ([3]; 4.0 μg/kg iv, three infusions, p<0.001, p=0.02, p=0.002) was “significantly lower”. For the same compound, the “Hamilton Anxiety rating, S/P group at end of Block 1 (scopolamine) vs baseline measures” value ([3]; 4.0 μg/kg iv, three infusions, p<0.01) was “significantly lower”, the “Hamilton Anxiety score, S/P group vs P/S group at last evaluation of Block 1” value ([3]; 4.0 μg/kg iv, three infusions, t=7.29, p=0.04) was “significantly lower” and the “Anxiety symptoms (mean Hamilton Anxiety scores, FIG. 3) following treatment” value [3, 5] was “significant improvement”. For the same compound, the “Hamilton Anxiety rating, S/P group at end of Block 2 (placebo after scopolamine) vs baseline” value ([3]; persistence of effect, p=0.01) was “significantly lower”.
